Assays:
GLP-1R [1] = biological target: T1, GLP-1R (Homo sapiens, UniProt P43220); experiment: Tag-lite binding assay (competition with GLP-1 receptors red agonist); conditions: for IC50: HEK293 GLP-1 cells labeled with SNAP-Lumi4-Tb, red agonist 4.917 nM, 23° C., 2 h; for Ki: calculated from sample IC50 and red agonist Kd
Procedure: B. Tag-Lite Binding Assay
The cell line was constructed by WuXi.
10) Dispense cells into cell plate (1.8 M cells/well in 2 ml medium of 6-well plate, total 4 wells).
Second Day: Tag-Lite Binding Assay
3) The cell culture medium is removed from the 6-well plate and then 1 mL of Tag-lite SNAP-Lumi4-Tb diluted in Tag-lite labeling medium are added gently on the cells.
7) The testing compounds and reference compound are serially diluted with 3-fold, 10 points using Echo, then transfer 100 nL compounds to the assay plate.
8) Add the labeled cells to each well according to the plate map, 10000 cells/10 uL/well. Centrifuge the plate at 1000 rpm for 1 min.
9) Incubate the plate at 23° C., 30 min.
10) Add 50 nL of red agonist (final conc.: 4.917 nM) to destination plate using Echo.
11) Incubate the plate at 23° C. for 2 h.
12) Read the plate on an HTRF® compatible reader (at 665 nm and 620 nm).
% Inhibition=100%−(Ratio−LC)/(HC−LC)*100%
HC: The average ratio of adding DMSO wells
LC: The average ratio of adding the top concentration of reference compounds wells
b) The “log (inhibitor) vs. response—Variable slope” model in GraphPad Prism 5.0 was used to fit the dose-response curve of each sample. The sample concentration (x) and its corresponding % Inhibition data (y) were substituted into the model. The sample concentration (abscissa) was x=log(x) transformed. The transformed xy was used as the sample curve to obtain the IC50.
c) Calculate the sample Ki according to the sample IC50 and red agonist Kd. S in the formula is the actual used concentration of red agonist.

GLP-1R [2] = biological target: T1, GLP-1R; experiment: GLP-1R agonist cAMP stimulation assay (HTRF cAMP); type: cell-based; conditions: HEK293 cell line expressing GLP-1 target; HTRF cAMP agonist mode, 30 min at RT
In short: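 GLP-1R-expressing cells were stimulated with 10-point, 3-fold compound dilutions for 30 min at RT; HTRF cAMP detection reagents were then added for 60 min and the 665/615 ratio read. Ratios were converted to cAMP via a standard curve and % activity scaled between DMSO and top-concentration GLP-1(7-37) reference wells.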

T1 sequence (P43220 24-463): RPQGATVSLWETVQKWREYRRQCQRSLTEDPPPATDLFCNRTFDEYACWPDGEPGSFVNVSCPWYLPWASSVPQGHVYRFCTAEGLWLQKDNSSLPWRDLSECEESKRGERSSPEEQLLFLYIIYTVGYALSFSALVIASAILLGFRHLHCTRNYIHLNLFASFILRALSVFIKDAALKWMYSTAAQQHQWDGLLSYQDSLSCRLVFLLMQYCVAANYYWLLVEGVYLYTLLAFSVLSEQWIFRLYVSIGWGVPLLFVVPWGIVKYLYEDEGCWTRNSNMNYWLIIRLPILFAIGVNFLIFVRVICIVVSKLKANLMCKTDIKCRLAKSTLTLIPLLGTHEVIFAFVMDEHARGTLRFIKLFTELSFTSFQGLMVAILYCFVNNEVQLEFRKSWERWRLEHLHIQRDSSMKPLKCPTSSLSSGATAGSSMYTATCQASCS

SMILES | IC50 (GLP-1R [1]) | Ki (GLP-1R [1]) | EC50 (GLP-1R [2])
O=C(NCC(=O)N1C[C@H](O)C[C@H]1C(=O)O)c1ccc2c(c1)nc(CN1CCC(c3cccc(OCc4ccc(Cl)cc4F)n3)CC1)n2C[C@@H]1CCO1 [Compound 2, (2S,4R)-1-((2-((4-(6-((4-chloro-2-fluorobenzyl)oxy)pyridin-2-yl)piperidin-1-yl)methyl)-1-(((S)-oxetan-2-yl)methyl)-1H-benzo[d]imidazole-5-carbonyl)glycyl)-4-hydroxypyrrolidine-2-carboxylic acid] | 345 nM | 165 nM | 0.32 nM
Cc1n[nH]c2ccc(NC(=O)c3ccc4c(c3)nc(CN3CC=C(c5cccc(OCc6ccc(Cl)cc6F)n5)CC3)n4C[C@@H]3CCO3)cc12 [Compound 3, (S)-2-((6-((4-chloro-2-fluorobenzyl)oxy)-3′,6′-dihydro-[2,4′-bipyridin]-1′(2′H)-yl)methyl)-N-(3-methyl-1H-indazol-5-yl)-1-(oxetan-2-ylmethyl)-1H-benzo[d]imidazole-5-carboxamide] | 1750 nM | 876 nM | 0.56 nM
Cc1n[nH]c2ccc(NC(=O)c3ccc4c(c3)nc(CN3CC=C(c5cccc6c5O[C@@](C)(c5ccc(Cl)cc5F)O6)CC3)n4C[C@@H]3CCO3)cc12 [Compound 5, 2-((4-((S)-2-(4-chloro-2-fluorophenyl)-2-methylbenzo[d][1,3]dioxol-4-yl)-3,6-dihydropyridin-1(2H)-yl)methyl)-N-(3-methyl-1H-indazol-5-yl)-1-(((S)-oxetan-2-yl)methyl)-1H-benzo[d]imidazole-5-carboxamide] | 1700 nM | 911 nM | 0.12 nM
O=C(NCC(=O)N1CC(F)(F)C[C@H]1C(=O)O)c1ccc2c(c1)nc(CN1CCC(c3cccc(OCc4ccc(Cl)cc4F)n3)CC1)n2C[C@@H]1CCO1 [Compound 62] | 2630 nM | 1320 nM | 0.51 nM
Cc1cc(NC(=O)c2ccc3c(c2)nc(CN2CCC(c4cccc(OCc5ccc(Cl)cc5F)n4)CC2)n3C[C@@H]2CCO2)cc2cn[nH]c12 [Compound 80] | 2320 nM | 1160 nM | 2.05 nM
O=C(Nc1ccc2c(c1)nc(CN1CCC(c3cccc(OCc4ccc(Cl)cc4F)n3)CC1)n2C[C@@H]1CCO1)c1ccc2[nH]c(=O)[nH]c2c1 [Compound 85] | 143 nM | 71.7 nM | 0.41 nM
Cc1n[nH]c2ccc(NC(=O)c3ccc4c(c3)nc(CN3CCC(c5cccc(OCc6ccc(Cl)cc6F)n5)CC3)n4C[C@@H]3CCO3)cc12 [Compound 88] | 1840 nM | 920 nM | 4.45 nM
O=C(Nc1ccc2[nH]c(=O)[nH]c2c1)c1ccc2c(c1)nc(CN1CCC(c3cccc(OCc4ccc(Cl)cc4F)n3)CC1)n2C[C@@H]1CCO1 [Compound 90] | 1900 nM | 950 nM | 1.59 nM
Cc1n[nH]c2c(C)cc(NC(=O)c3ccc4c(c3)nc(CN3CCC(c5cccc(OCc6ccc(Cl)cc6F)n5)CC3)n4C[C@@H]3CCO3)cc12 [Compound 100] | 1260 nM | 893 nM | 0.98 nM
O=C(Nc1ccc2c(c1)C1(CC1)C(=O)N2)c1ccc2c(c1)nc(CN1CCC(c3cccc(OCc4ccc(Cl)cn4)n3)CC1)n2C[C@@H]1CCO1 [Compound 101] | 1280 nM | 641 nM | 0.75 nM
Cc1n[nH]c2c(F)cc(NC(=O)c3ccc4c(c3)nc(CN3CCC(c5cccc(OCc6ccc(Cl)cc6F)n5)CC3)n4C[C@@H]3CCO3)cc12 [Compound 103] | 1550 nM | 885 nM | 0.83 nM
Cc1cc(NC(=O)c2ccc3c(c2)nc(CN2CCC(c4cccc(OCc5ccc(Cl)cc5F)n4)CC2)n3C[C@@H]2CCO2)cc2c1NC(=O)C21CC1 [Compound 105] | 1940 nM | 1000 nM | 0.78 nM
Cc1n[nH]c2c(F)cc(NC(=O)c3ccc4c(c3)nc(CN3CCC(c5cccc(OCc6ccc(C#N)cc6F)n5)CC3)n4C[C@@H]3CCO3)cc12 [Compound 126] | 1400 nM | 806 nM | 0.18 nM
Cc1n[nH]c2c(C)cc(NC(=O)c3ccc4c(c3)nc(CN3CCC(c5cccc(OCc6ccc(C#N)cc6F)n5)CC3)n4C[C@@H]3CCO3)cc12 [Compound 127] | 1250 nM | 744 nM | 0.15 nM
Cc1cc(NC(=O)c2ccc3c(c2)nc(CN2CCC(c4cccc(OCc5ccc(C#N)cc5F)n4)CC2)n3C[C@@H]2CCO2)cc2cn[nH]c12 [Compound 134] | 1840 nM | 904 nM | 0.85 nM
O=C(Nc1ccc2c(c1)nc(CN1CC=C(c3cccc(OCc4ccc(Cl)cc4F)n3)CC1)n2C[C@@H]1CCO1)c1ccc2[nH]c(=O)[nH]c2c1 [Compound 142] | 2010 nM | 1000 nM | 0.21 nM
Cc1n[nH]c2ccc(NC(=O)c3ccc4c(c3)nc(CN3CC=C(c5cccc(OCc6ccc(Cl)cn6)n5)CC3)n4C[C@@H]3CCO3)cc12 [Compound 145] | 1920 nM | 956 nM | 0.45 nM

SMILES | IC50 (GLP-1R [1]) | Ki (GLP-1R [1]) | EC50 (GLP-1R [2])
O=C(Nc1ccc2[nH]c(=O)[nH]c2c1)c1ccc2c(c1)nc(CN1CC=C(c3cccc(OCc4ccc(Cl)cc4F)n3)CC1)n2C[C@@H]1CCO1 [Compound 147] | 1750 nM | 841 nM | 0.68 nM
Cc1n[nH]c2c(C)cc(NC(=O)c3ccc4c(c3)nc(CN3CC=C(c5cccc(OCc6ccc(Cl)cc6F)n5)CC3)n4C[C@@H]3CCO3)cc12 [Compound 151] | 1050 nM | 519 nM | 0.6 nM
Cc1n[nH]c2c(F)cc(NC(=O)c3ccc4c(c3)nc(CN3CC=C(c5cccc(OCc6ccc(Cl)cc6F)n5)CC3)n4C[C@@H]3CCO3)cc12 [Compound 153] | 1450 nM | 873 nM | 0.59 nM
O=C(Nc1cc(F)c2c(c1)C1(CC1)C(=O)N2)c1ccc2c(c1)nc(CN1CC=C(c3cccc(OCc4ccc(Cl)cc4F)n3)CC1)n2C[C@@H]1CCO1 [Compound 154] | 1580 nM | 904 nM | 0.45 nM
O=C(Nc1ccc2[nH]nnc2c1)c1ccc2c(c1)nc(CN1CC=C(c3cccc(OCc4ccc(Cl)cc4F)n3)CC1)n2C[C@@H]1CCO1 [Compound 166] | 2650 nM | 1320 nM | 0.76 nM
Cc1cc(NC(=O)c2ccc3c(c2)nc(CN2CC=C(c4cccc(OCc5ccc(C#N)cc5F)n4)CC2)n3C[C@@H]2CCO2)cc2c1NC(=O)C21CC1 [Compound 178] | 875 nM | 430 nM | 0.19 nM
Cc1n[nH]c2c(F)cc(C(=O)Nc3ccc4c(c3)nc(CN3CC=C(c5cccc(OCc6ccc(Cl)cc6F)n5)CC3)n4C[C@@H]3CCO3)cc12 [Compound 196] | 152 nM | 87.9 nM | 0.17 nM
Cc1n[nH]c2c(C)cc(C(=O)Nc3ccc4c(c3)nc(CN3CC=C(c5cccc(OCc6ccc(Cl)cc6F)n5)CC3)n4C[C@@H]3CCO3)cc12 [Compound 197] | 165 nM | 84 nM | 0.19 nM
O=C(Nc1ccc2c(c1)nc(CN1CC=C(c3cccc(OCc4ccc(Cl)cc4F)n3)CC1)n2C[C@@H]1CCO1)c1ccc2c(c1)C1(CC1)C(=O)N2 [Compound 203] | 158 nM | 90.3 nM | 0.24 nM
O=C(Nc1ccc2c(c1)nc(CN1CC=C(c3cccc(OCc4ccc(Cl)cn4)n3)CC1)n2C[C@@H]1CCO1)c1ccc2[nH]c(=O)[nH]c2c1 [Compound 207] | 149 nM | 82.4 nM | 0.43 nM
Cc1n[nH]c2c(C)cc(C(=O)Nc3ccc4c(c3)nc(CN3CC=C(c5cccc(OCc6ccc(C#N)cc6F)n5)CC3)n4C[C@@H]3CCO3)cc12 [Compound 229] | 122 nM | 75.9 nM | 0.21 nM
Cc1n[nH]c2c(F)cc(C(=O)Nc3ccc4c(c3)nc(C3CC35CCN(c3cccc(OCc6ccc(Cl)cc6F)n3)CC5)n4CC3CCO3)cc12 (stereo not drawn) [Compound 244] | 189 nM | 110 nM | 0.33 nM
Cc1n[nH]c2c(C)cc(C(=O)Nc3ccc4c(c3)nc(C3CC35CCN(c3cccc(OCc6ccc(Cl)cc6F)n3)CC5)n4CC3CCO3)cc12 (stereo not drawn) [Compound 245] | 146 nM | 82.3 nM | 0.51 nM
Cc1n[nH]c2c(C)cc(NC(=O)c3ccc4nc(CN5CC=C(c6cccc(OCc7ccc(C#N)cc7F)n6)CC5)n(CC5CCO5)c4c3)cc12 (stereo not drawn) [Compound 276] | 2460 nM | 1010 nM | 0.65 nM
Cc1n[nH]c2c(F)cc(NC(=O)c3ccc4c(c3)nc(CN3CCC(c5cccc6c5OC(C)(c5ccc(C#N)cc5F)O6)CC3)n4CC3CCO3)cc12 (stereo not drawn) [Compound 334] | 1210 nM | 692 nM | 0.61 nM
Cc1n[nH]c2c(C)cc(NC(=O)c3ccc4c(c3)nc(CN3CCC(c5cccc6c5OC(C)(c5ccc(C#N)cc5F)O6)CC3)n4CC3CCO3)cc12 (stereo not drawn) [Compound 335] | 1110 nM | 615 nM | 0.97 nM
